SMILES strings stand for the structures. Activity calls are given as the source filed them. The rule behind the calls is not given here.

For this data set, the system named is rodent carcinogenicity bioassays, tumor incidence. In words: CCRIS carcinogenicity studies. The method in brief:
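Archive of carcinogenicity, mutagenicity, tumor promotion and tumor inhibition results drawn from journals, NCI reports and other sources, expert-reviewed; covers 1985-2011 and is no longer updated.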

Regarding `c1ccc(C2CO2)cc1` (stereo not drawn), the carcinogen call (Species: MOUSE, Strain/Sex: B6C3F1/FEMALE, Route: GAVAGE, Dose: 0, 375, 750 MG/KG IN CORN OIL 3 D/WK FOR UP TO 104 WK (STUDY DURATION: 24 MO), Dose: 0, 375, 750 MG/KG IN CORN OIL 3 D/WK FOR UP TO 104 WK (STUDY DURATION: 24 MO), Tumor Site: Type of Lesion: FORESTOMACH: PAPILLOMA, CARCINOMA) was “active; positive”; the carcinogen call (Species: MOUSE, Strain/Sex: B6C3F1/MALE, Route: GAVAGE, Dose: 0, 375, 750 MG/KG IN CORN OIL 3 D/WK FOR UP TO 104 WK (STUDY DURATION: 24 MO), Dose: 0, 375, 750 MG/KG IN CORN OIL 3 D/WK FOR UP TO 104 WK (STUDY DURATION: 24 MO), Tumor Site: Type of Lesion: LIVER: CARCINOMA OR ADENOMA, FORESTOMACH: PAPILLOMA, CARCINOMA) is “active; positive”; the carcinogen call (Species: RAT, Strain/Sex: BDIV/FEMALE, Route: GAVAGE, Dose: 0, 100-150 MG/KG IN OLIVE OIL 1/WK FOR 96 WK ADMINISTERED TO OFFSPRING OF FEMALE RATS GIVEN 200 MG/KG ONCE ON DAY 17 OF, Tumor Site: Type of Lesion: FORESTOMACH: CARCINOMA IN SITU, CARCINOMA) is “active; positive”; the carcinogen call (Species: RAT, Strain/Sex: BDIV/FEMALE, Route: GAVAGE, Dose: 0, 200 MG/KG ONCE IN OLIVE OIL ON DAY 17 OF PREGNANCY (STUDY DURATION: 120 WK)) is “inactive; negative”; the carcinogen call (Species: RAT, Strain/Sex: BDIV/MALE, Route: GAVAGE, Dose: 0, 100-150 MG/KG IN OLIVE OIL 1/WK FOR 96 WK ADMINISTERED TO OFFSPRING OF FEMALE RATS GIVEN 200 MG/KG ONCE ON DAY 17 OF, Tumor Site: Type of Lesion: FORESTOMACH: PAPILLOMA, CARCINOMA IN SITU, CARCINOMA) is “active; positive”; the carcinogen call (Species: RAT, Strain/Sex: F344/FEMALE, Route: GAVAGE, Dose: 0, 275, 550 MG/KG IN CORN OIL 3 D/WK FOR 104 WK (STUDY DURATION: 24 MO), Dose: 0, 275, 550 MG/KG IN CORN OIL 3 D/WK FOR 104 WK (STUDY DURATION: 24 MO), Tumor Site: Type of Lesion: FORESTOMACH: PAPILLOMA, SQUAMOUS CELL CARCINOMA) was “active; positive”. The carcinogen call by setting is: (Species: RAT, Strain/Sex: F344/MALE, Route: GAVAGE, Dose: 0, 275, 550 MG/KG IN CORN OIL 3 D/WK FOR 104 WK (STUDY DURATION: 24 MO), Dose: 0, 275, 550 MG/KG IN CORN OIL 3 D/WK FOR 104 WK (STUDY DURATION: 24 MO), Tumor Site: Type of Lesion: FORESTOMACH: PAPILLOMA, SQUAMOUS CELL CARCINOMA) “active; positive”; (Species: RAT, Strain/Sex: SPRAGUE-DAWLEY/FEMALE, Route: GAVAGE, Dose: 0, 50, 250 MG/KG BW IN OLIVE OIL 1/D 4-5 D/WK FOR 52 WK (STUDY DURATION: LIFETIME), Dose: 0, 50, 250 MG/KG BW IN OLIVE OIL 1/D 4-5 D/WK FOR 52 WK (STUDY DURATION: LIFETIME), Tumor Site: Type of Lesion: [BRAIN WAS ONLY SITE EVALUATED]) “inactive; negative”; (Species: RAT, Strain/Sex: SPRAGUE-DAWLEY/FEMALE, Route: INTRAGASTRIC, Dose: 0, 50, 250 MG/KG IN OLIVE OIL 1/D, 4-5 D/WK FOR 52 WK (STUDY DURATION: LIFESPAN, Dose: 0, 50, 250 MG/KG IN OLIVE OIL 1/D, 4-5 D/WK FOR 52 WK (STUDY DURATION: LIFESPAN, Tumor Site: Type of Lesion: FORESTOMACH: PAPILLOMA OR ACANTHOMA, SQUAMOUS CELL CARCINOMA) “active; positive”; (Species: RAT, Strain/Sex: SPRAGUE-DAWLEY/MALE, Route: GAVAGE, Dose: 0, 50, 250 MG/KG BW IN OLIVE OIL 1/D 4-5 D/WK FOR 52 WK (STUDY DURATION: LIFETIME), Dose: 0, 50, 250 MG/KG BW IN OLIVE OIL 1/D 4-5 D/WK FOR 52 WK (STUDY DURATION: LIFETIME), Tumor Site: Type of Lesion: [BRAIN WAS ONLY SITE EVALUATED]) “inactive; negative”; (Species: RAT, Strain/Sex: SPRAGUE-DAWLEY/MALE, Route: INTRAGASTRIC, Dose: 0, 50, 250 MG/KG IN OLIVE OIL 1/D, 4-5 D/WK FOR 52 WK (STUDY DURATION: LIFESPAN, Dose: 0, 50, 250 MG/KG IN OLIVE OIL 1/D, 4-5 D/WK FOR 52 WK (STUDY DURATION: LIFESPAN, Tumor Site: Type of Lesion: FORESTOMACH: PAPILLOMA OR ACANTHOMA, SQUAMOUS CELL CARCINOMA) “active; positive”.

As to `COc1c2occc2cc2ccc(=O)oc12`, the carcinogen call was “inactive; negative” (Species: RAT, Strain/Sex: F344/F, Route: GAVAGE, Dose: 0, 37.5, 75 MG/KG IN CORN OIL 5D/WK FOR 103 WK (STUDY DURATION: 106 WK), Dose: 0, 37.5, 75 MG/KG IN CORN OIL 5D/WK FOR 103 WK (STUDY DURATION: 106 WK)) and “active; positive” (Species: RAT, Strain/Sex: F344/M, Route: GAVAGE, Dose: 0, 37.5, 75 MG/KG IN CORN OIL 5D/WK FOR 103 WK (STUDY DURATION: 106 WK), Dose: 0, 37.5, 75 MG/KG IN CORN OIL 5D/WK FOR 103 WK (STUDY DURATION: 106 WK), Tumor Site: Type of Lesion: SUBCUTANEOUS TISSUE: FIBROMA, SUBCUTANEOUS TISSUE: FIBROMA OR SARCOMA, LUNG: ALVEOLAR/BRONCHIOLAR ADENOMA, KIDNEY: TUBUL, Tumor Site: Type of Lesion: SUBCUTANEOUS TISSUE: FIBROMA, SUBCUTANEOUS TISSUE: FIBROMA OR SARCOMA, LUNG: ALVEOLAR/BRONCHIOLAR ADENOMA, KIDNEY: TUBUL).

Regarding `Cc1cc(N=Nc2ccccc2C)ccc1N`, the carcinogen call is “active; positive” (Species: DOG, Route: ORAL, Tumor Site: Type of Lesion: LIVER, GALL BLADDER, URINARY BLADDER, Tumor Site: Type of Lesion: LIVER, GALL BLADDER, URINARY BLADDER); “active; positive” (Species: HAMSTER, Route: ORAL, Tumor Site: Type of Lesion: LIVER, URINARY BLADDER); “active; positive” (Species: MOUSE, Route: INTRAPERITONEAL, ORAL, SUBCUTANEOUS, DERMAL, Tumor Site: Type of Lesion: LIVER); “active; positive” (Species: MOUSE, Route: ORAL, SUBCUTANEOUS, Tumor Site: Type of Lesion: LUNG); “active; positive” (Species: RAT, Route: ORAL, SUBCUTANEOUS, Tumor Site: Type of Lesion: LIVER).

The values above are taken from PubChem BioAssay AID1259411 (Chemical Carcinogenesis Research Information System (CCRIS), 2018).
